Legend:
[1] = target: T1, α7 nicotinic acetylcholine receptor (α7 nAChR) (Homo sapiens, UniProt P36544); experiment: two-electrode voltage clamp in Xenopus oocytes; format: cell-based
[2] = target: T1, α7 nicotinic acetylcholine receptor (α7 nAChR); experiment: two-electrode voltage clamp in Xenopus oocytes; format: cell-based; remark: listed apart in the source

T1 sequence (P36544 23-502): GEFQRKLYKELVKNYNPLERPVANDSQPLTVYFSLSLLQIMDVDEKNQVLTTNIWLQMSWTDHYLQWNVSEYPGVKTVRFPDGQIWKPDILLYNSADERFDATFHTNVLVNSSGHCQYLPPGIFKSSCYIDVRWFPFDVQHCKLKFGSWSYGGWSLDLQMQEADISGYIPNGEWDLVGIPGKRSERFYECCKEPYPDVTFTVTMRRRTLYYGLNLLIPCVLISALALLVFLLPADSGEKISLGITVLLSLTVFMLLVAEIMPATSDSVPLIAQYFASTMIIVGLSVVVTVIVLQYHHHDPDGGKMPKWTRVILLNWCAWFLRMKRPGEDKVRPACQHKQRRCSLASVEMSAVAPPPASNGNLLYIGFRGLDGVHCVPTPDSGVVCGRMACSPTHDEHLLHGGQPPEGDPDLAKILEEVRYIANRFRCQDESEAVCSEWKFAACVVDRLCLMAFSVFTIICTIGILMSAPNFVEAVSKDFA

IC50 [2] [µM] | SMILES | EC50 [1] [µM]
 | O=c1c(O)c(-c2ccc(O)c(O)c2)oc2cc(O)cc(O)c12 [Que, quercetin] | 35.1 ± 3.8
70.4 ± 3.6 | C[C@@H]1O[C@@H](OC[C@H]2O[C@@H](Oc3c(-c4ccc(O)c(O)c4)oc4cc(O)cc(O)c4c3=O)[C@H](O)[C@@H](O)[C@@H]2O)[C@H](O)[C@H](O)[C@H]1O [Rutin, quercetin-3-O-rutinoside] | 
